This is an account of results in PMC6081593, “Cytotoxic and Apoptotic Effects of Govaniadine Isolated from Corydalis govaniana Wall. Roots on Human Breast Cancer (MCF-7) Cells” (BioMed Research International, 2018).

In data set [1] the test system is MCF-7 cells. As to the kind of experiment: SRB in vitro cytotoxicity assay, MCF-7. In kind it is cell-based, human. The conditions noted are these: for IC50: Homo sapiens, MCF7, SRB assay, read-out: IC50 (dose causing 50% inhibition) of MCF-7 cells. As to the method:
(§1) Human breast cancer cell line [MCF-7, ER^+ (ATCC, HTB-22TM)] was cultured in Dulbecco's Modified Eagle Medium (DMEM) (Invitrogen, Carlsbad, CA, USA) supplemented with 10% Fetal bovine serum (FBS), 100 U/mL of penicillin, 0.1 mg/mL streptomycin, and 0.01 mg/mL insulin. Normal mammary epithelial cell line [MCF-10A (ATCC® CRL-10317)] was grown in Mammary Epithelium Basal Medium (MEBM) (Lonza, Walkersville, MD, USA). Both MCF-7 and MCF-10A cells were maintained in a humidified incubator at 37°C with 5% CO2. All the cell lines and 10% FBS were purchased from the American type cell culture (ATCC), Rockville, MD, USA. All chemicals were purchased from Sigma-Aldrich (St. Louis, MO, USA) unless otherwise specified.
(§2) MCF-7 and MCF-10A cells were trypsinized using […] trypsin/EDTA, plated in cell culture treated 96-well plates (5 x 10^3 cells/ well) and incubated for 24 h. After incubation, cells were treated with govaniadine (1, 2, 4, 8, or 16 μM) and maintained at 37°C with CO2 for 24, 48, or 72 h. After the incubation period, Sulforhodamine B (SRB) assay was performed as described previously to assess cell viability. Absorbance was read at optical density (OD) 540 nm (Synergy™ HT, BioTek, USA) and percentage cell viability was calculated. Negative controls contained only 0.1% DMSO and medium whereas paclitaxel was used as the positive control.
Background: The SRB assay estimates cell density from bound dye.

The test system of data set [2] is MCF-10A cells. As to the kind of experiment: SRB in vitro cytotoxicity assay, MCF-10A. In kind it is cell-based. The settings on record: Homo sapiens, read-out: IC50 against MCF-10A cells. As to the method: as §1, §2
The test system of data set [3] is caspase-7. As to the kind of experiment: Caspase-Glo 3/7 assay of caspase 7 activity in MCF-7 cells. In kind it is cell-based, human. The settings on record: 1 μM (P<0.05) and 2 μM (P<0.01), 24 h, vs control. As to the method:
MCF-7 cells (2 x 10^5 cells/mL) were seeded in 96-well plates and maintained for 24 h at 37°C in 5% CO2. After 24 h, cells were exposed to govaniadine (1 and 2 μM) for further 24 h. Control cells were treated with 0.1% DMSO. Caspase-Glo® 3/7 assay (Promega, Madison, WI, USA) was used to measure caspase 7 activity according to the manufacturer's instructions, and luminescence was measured using a luminescence plate reader (Synergy™ HT, BioTek, USA).

The subject of data set [4] is p53 mRNA. The data set is described as follows: RT-qPCR p53 mRNA expression in MCF-7 cells. The class given is cell-based, human. The settings on record: 24 h incubation. As to the method:
(§3) Cells were grown in T25 flasks (2 x 10^5 cells/mL) for 24 h at 37°C in 5% CO2 and treated with govaniadine (1 and 2 μM) in triplicate and incubated for further 24 h. Control cells were treated with 0.1% DMSO. After 24 h, cells were harvested and total RNA was extracted with TRIzol® Reagent (Invitrogen; Thermo Fisher Scientific, Inc., Carlsbad, CA, USA) according to the manufacturer's protocol. cDNA synthesis and RT-qPCR were performed as described previously. RT-qPCR was performed in Stratagene Mx3000P real time PCR machine using MESA Green qPCR Master Mix Plus for SYBR Assay (Eurogentec, Seraing, Liège, Belgium). Data were normalized to an internal reference gene GAPDH, and relative gene expression was assessed using the comparative Ct method (2^−ΔΔCt).
On the technique in general: Quantitative PCR measures a nucleic acid by following its amplification.

In data set [5] the test system is Bax mRNA. As to the kind of experiment: RT-qPCR Bax mRNA expression in MCF-7 cells. In kind it is cell-based, human. The conditions noted are these: 24 h incubation. As to the method: as §3
For data set [6], the system named is Survivin mRNA. As to the kind of experiment: RT-qPCR survivin mRNA expression in MCF-7 cells. The class given is cell-based, human. The conditions noted are these: 24 h incubation. As to the method: as §3
Data set [7] relates to MCF-7 cells. The data set is described as follows: Annexin V/PI flow cytometry apoptosis detection. In kind it is cell-based, human. The conditions noted are these: 24 h; for early apoptotic cells: upper left quadrant; for late apoptotic cells: upper right quadrant. As to the method: MCF-7 cells (2x10^5 cell/mL) cultured in T25 cell culture flasks for 24 h at 37°C in 5% CO2 were exposed to govaniadine (4, 8, and 16 μM) for further 24 h. Control cells were treated with 0.1% DMSO. After 24 h, apoptosis mediated by the govaniadine on MCF-7 cells was detected by the Annexin V/ Propidium Iodide (PI) apoptosis detection kit (Santa Cruz, Texas, USA) according to the manufacturer's instructions by using a Partec Cyflow® Cube 6 Flow Cytometer. The data was analyzed with De Novo FCS Express version 4 software, and all experiments to detect apoptosis were done in triplicate.

Data set [8] concerns MCF-7 cells. The data set is described as follows: DNA fragmentation analysis (gel electrophoresis). The conditions noted are these: MCF-7 cells, 4, 8, 16 μM, 48 or 72 h. The class given is cell-based, human. As to the method:
MCF-7 cells (2x10^5 cell/mL) were treated with 4, 8, and 16 μM doses of govaniadine incubated for 48 or 72 h, respectively. Medium containing 0.1% DMSO and thymoquinone were used as negative and positive controls, respectively. After the incubation period, DNA fragmentation was analyzed as described by. Gel electrophoresis was carried out with extracted DNA and visualized under UV light to assess the effect on DNA fragmentation (Quantum-ST4 1100/20 M; Fisher Biotec Pty Ltd., Wembley, Australia) following electrophoresis on a 2.0% agarose gel stained with ethidium bromide (EB).

Data set [9] deals with MCF-7 cells. As to the kind of experiment: Reactive oxygen species (NBT) assay. In kind it is cell-based, human. The settings on record: 1 and 2 μM, 24 h, vs control. As to the method: MCF-7 cells were seeded (2x10^5 cell/mL) in 96-well plates for 24 h at 37°C in 5% CO2. After 24 h, MCF-7 cells were treated with govaniadine (1 and 2 μM) in triplicate and incubated for 24 h. Control cells were treated with 0.1% DMSO. An assay for the intracellular conversion of nitro blue tetrazolium (NBT) to formazan by superoxide anion was used to measure the generation of reactive oxygen species in cells. NTB was subsequently added at a final concentration of 1.2 mM to the wells and incubated in the dark for 1 h at 37°C. The formazan content of the cells was then solubilized with […] of DMSO, and the absorbance was measured at OD 630 nm (Synergy™ HT Multi-Mode Microplate Reader).

Data set [10] has as its system MCF-7 cells. As to the kind of experiment: Intracellular glutathione (GSH) measurement. The settings on record: 1 and 2 μM, 24 h, vs control. The class given is cell-based, human. As to the method: (§4) MCF-7 cells were seeded (2x10^5 cell/mL) in 24-well plates and maintained for 24 h at 37°C in 5% CO2. Then the cells were exposed to different concentrations of govaniadine (1 and 2 μM) for further 24 h. Control cells were treated with 0.1% DMSO. After 24 h, cells were trypsinized and pelleted. Cell suspension of approximately 10^6 cells per mL in an appropriate buffer was prepared and homogenized using sonication in ice. Cell homogenate was transferred to 1.5 mL eppendorf tubes and centrifuged at 15,000 rpm for 10 min at 4°C. The resulting supernatant (cell lysate) was transferred to a new 1.5 mL micro centrifuge tube and kept on ice. Total amount of protein present in the cell lysate was determined using bovine serum albumin (BSA) as the standard. Reduced GSH was estimated as described previously. The activity of GST was determined as described by. Intracellular GSH and GST levels were expressed as μM/mg of cell lysate protein.

In data set [11] the test system is MCF-7 cells. As to the kind of experiment: Intracellular glutathione S-transferase (GST) measurement. In kind it is cell-based, human. The conditions noted are these: 1 and 2 μM, 24 h, vs control. As to the method: as §4
Data set [12] deals with MCF-7 cells. As to the kind of experiment: Cell morphology by phase contrast light microscopy. The class given is cell-based, human. The settings on record: 1-16 μM, 24, 48 and 72 h. As to the method: To determine the effect of govaniadine on the morphology of MCF-7 cells, cells (2x10^5 cells/mL) maintained in DMEM for 24 h were exposed to different concentrations (1, 2, 4, 8, and 16 μM) of govaniadine for further 24, 48, or 72 h at 37°C in 5% CO2. Control cells were treated with 0.1% DMSO. After the incubation period, morphological changes of the cells were observed and photographed on an inverted phase contrast microscope (Olympus CKX41SF, Japan).

Data set [13] deals with MCF-7 cells. The data set is described as follows: Cell morphology and nuclear changes by AO/EB and Hoechst staining. In kind it is cell-based, human. The settings on record: 2-16 μM, 24 h. As to the method: MCF-7 cells harvested by trypsinization upon reaching 70-80% confluence were seeded (5x10^4 cells/well) on cell culture treated cover slips placed in a 24-well cell culture plate and exposed to different concentrations (2, 4, 8, and 16 μM) of govaniadine for 24 h at 37°C in 5% CO2. Control cells were treated with 0.1% DMSO. After 24 h, cells were fixed with 4% formaldehyde, and AO/EB solution (10 μL) and Hoechst stain (0.005 mg/mL, 10 μL) were added for 2–5 min. Cells were then observed under a fluorescence microscope (Olympus Co., Tokyo, BX51TRF, Japan).

Where two headings read alike, the source gives them in different places.

`COc1ccc2c(c1O)C1Cc3cc4c(cc3CN1CC2)OCO4` (stereo not drawn) [govaniadine]: the IC50 (commonly the concentration at which inhibition is half-maximal) came to 3.05 ± 0.27 µM in [1] (24 h postincubation); 2.52 ± 0.31 µM in data set [1] (48 h postincubation); 1.6 ± 0.23 µM in data set [1] (72 h postincubation); 269 ± 0.25 µM in data set [2] (24 h postincubation); 223.4 ± 0.32 µM in [2] (48 h postincubation); 194.9 ± 0.24 µM in data set [2] (72 h postincubation). Further, in [1] (comparison of IC50 values in MCF-7 and MCF-10A with reference drug), the “Selectivity of cytotoxicity, MCF-7 versus MCF-10A cells” value was “more selective towards MCF-7 cells than the paclitaxel”. In addition, in [3], the Caspase-7 activity result is recorded as “activated significantly”. Also, the “p53 mRNA fold change” value in [4] (1 μM) turned out to be 11.37 fold; in data set [4] (2 μM), 15.42 fold. The “Bax mRNA fold change” value worked out at 5.07 fold in data set [5] (1 μM) and 11.66 fold in [5] (2 μM). In addition, the “survivin mRNA fold increase” value in data set [6] (1 μM) is recorded as 9.08 fold. Further, the survivin gene expression result in data set [6] (2 μM) is listed as “not regulated”. The early apoptotic cells was 3.31% in data set [7] (4 μM) and 7.33% in data set [7] (16 μM). The late apoptotic cells in data set [7] (4 μM) was determined as 11.15%; in [7] (16 μM), 41.42%. For the same molecule, the viability at 4 µM in data set [7] (Homo sapiens, MCF7, 4 μM, lower left quadrant, read-out: intact viable cells) came to 78.6%. The viability at 8 µM in data set [7] (Homo sapiens, MCF7, 8 μM, lower left quadrant, read-out: intact viable cells) turned out to be 61.1%. Also, the viability at 16 µM in [7] (Homo sapiens, MCF7, 16 μM, lower left quadrant, read-out: intact viable cells) was determined as 36.8%. Besides, the DNA fragmentation entry in data set [8] is “DNA fragmentation in a time- and dose-dependent manner”. Further, the ROS production result in data set [9] is listed as “dose-dependent significant (p<0.05) increase”. The “Intracellular GSH level” value in data set [10] is “decreased significantly”. In addition, the GST level result in [11] is on record as “increased significantly”. In addition, in data set [12], the “Morphological changes (phase contrast microscopy)” value is reported as “increased the number of apoptotic cells”. For the same molecule, the “Nuclear changes (Hoechst 33258 staining)” value in data set [13] is “Nuclei with brighter hypercondensed chromatin”.
With `CC(=O)O[C@H]1C(=O)[C@@]2(C)[C@H]([C@H](OC(=O)c3ccccc3)[C@]3(O)C[C@H](OC(=O)[C@H](O)[C@@H](NC(=O)c4ccccc4)c4ccccc4)C(C)=C1C3(C)C)[C@]1(OC(C)=O)CO[C@@H]1C[C@@H]2O` [paclitaxel, reference compound], the 50% inhibitory concentration (IC50) in [1] (24 h postincubation) came out at 2.21 ± 0.15 µM; in data set [1] (48 h postincubation), 0.13 ± 0.05 µM; in data set [1] (72 h postincubation) it was 0.0089 ± 0.006 µM; in [2] (24 h postincubation) it was 11.9 ± 1.5 µM; in data set [2] (48 h postincubation) it was 6.06 ± 2.45 µM; in [2] (72 h postincubation), 3.11 ± 1.98 µM.
